{"source": "patent US20060058336A1", "about": "“Pharmaceutical composition for treatment of drug dependence” (priority 2003, published 2006)", "key": {"wild-type mice [1]": {"system": "wild-type mice", "assay": "Cocaine-induced hyperlocomotion on day 6 after establishment of cocaine dependence, wild-type mice", "format": "in vivo", "conditions": "cocaine 10 mg/kg i.p. daily 5 days, day 6 pretreatment 1 mg/kg 10 min before cocaine, FIG. 5c, P<0.001, P<0.01", "description": "Wild-type mice (9-13 weeks) received intraperitoneal injection of cocaine (10 mg/kg) once a day for 5 days. […] On day 6, the mice were pretreated with saline, donepezil (1 mg/kg) or galanthamine (1 mg/kg) 10 min before intraperitoneal injection of cocaine (10 mg/kg), and the cocaine-induced locomotor activity was measured for 10 min (n=5-12 for each group)."}, "IT-tg and IT-wt mice [2]": {"system": "IT-tg and IT-wt mice", "assay": "Morphine CPP test in cholinergic cell-eliminated (IT-tg) and IT-wt mice with donepezil pretreatment", "format": "in vivo", "conditions": "donepezil hydrochloride 1 mg/kg i.p. 20 min before morphine 5 mg/kg, 3-day conditioning", "protocol": "(§1) Cholinergic cell-eliminated (IT-tg) mice wherein ACh-expressing cells (cholinergic cells) in the NAc were ablated were prepared and used in the experiment for examining the effects of reduction of ACh level in the NAc on sensitivity to an addictive drug (a drug dependence-producing drug). Selective ablation of cholinergic cells in the NAc was conducted through immunotoxin-mediated cell targeting (IMCT) techniques using transgenic mice and anti-Tac(Fv)-PE38 as the immunotoxin (Kobayashi et al., Proc. Natl Acad. Sci. USA 92, 1132-1136 (1995); Watanabe et al., Cell 95, 17-27 (1998)). […] Anti-Tac(Fv)-PE38 is an immunotoxin that can specifically recognize cells expressing hIL-2Rα and inhibits their protein synthesis, thereby eliminating the cells expressing hIL-2Rα. The present inventors have developed a method for selectively ablating cholinergic cells in the NAc; the method comprising administering anti-Tac(Fv)-PE38 locally to a transgenic mouse whose NAc specifically expressed hIL-2Rα in cholinergic cells. […] Both wild-type and transgenic mice were C57B6/J strain. […] The above-mentioned IT-treated transgenic mouse was used as cholinergic cell-eliminated mouse (IT-tg) in the Experiments and Examples hereinafter described."}, "IT-wt and IT-tg mice": {"system": "IT-wt and IT-tg mice", "assay": "Cocaine-induced hyperlocomotion on day 6 in IT-wt and IT-tg mice", "format": "in vivo", "conditions": "cocaine 10 mg/kg daily 5 days, day 6 donepezil 1 mg/kg 10 min before cocaine", "description": "Cholinergic cell-eliminated (IT-tg) mice wherein ACh-expressing cells (cholinergic cells) in the NAc were ablated were prepared and used in the experiment for examining the effects of reduction of ACh level in the NAc on sensitivity to an addictive drug (a drug dependence-producing drug). Selective ablation of cholinergic cells in the NAc was conducted through immunotoxin-mediated cell targeting (IMCT) techniques using transgenic mice and anti-Tac(Fv)-PE38 as the immunotoxin (Kobayashi et al., Proc. Natl Acad. Sci. USA 92, 1132-1136 (1995); Watanabe et al., Cell 95, 17-27 (1998)). Anti-Tac (Fv)-PE38 is a recombinant fusion protein composed of a variable region of a monoclonal antibody against human interleukin 2 receptor α subunit (hIL-2Rα) and Pseudomonas exotoxin, and can be purified from E. coli BL21 as described by Chaudhary et al. (Nature 339, 394-397 (1989)). Anti-Tac(Fv)-PE38 is an immunotoxin that can specifically recognize cells expressing hIL-2Rα and inhibits their protein synthesis, thereby eliminating the cells expressing hIL-2Rα. […]\nThe present investigation was conducted to examine whether ACh derived from the NAc cholinergic cells is responsible for cocaine-induced hyperlocomotion. […] Their cocaine-induced locomotion was then measured for 10 min (n=7-11 for each group). […]"}, "wild-type mice [3]": {"system": "wild-type mice", "assay": "Relapse of cocaine-induced hyperlocomotion after drug deprivation, wild-type mice", "format": "in vivo", "conditions": "cocaine 10 mg/kg 6 days, withheld days 7-11, day 12 donepezil 1 mg/kg 10 min before cocaine, P<0.001 vs saline, FIG. 5e", "description": "Drug-induced sensitization caused by continuous daily cocaine administration persists for a long term even after a prolonged period of abstinence from the drug. This is taken seriously as a mechanism of relapse, whereby a drug dependent individual resumes taking a drug after a long-term interruption. The effects of donepezil in blocking relapse of cocaine dependence were examined as follows: Wild-type mice (9-13 weeks) received intraperitoneal injection of cocaine (10 mg/kg) once a day for 6 days and cocaine dependence was established in mice. For 5 days, from day 7 to day 11, mice were withheld from cocaine and were kept in their home cage. On day 12, the mice were pretreated with saline or donepezil (1 mg/kg) 10 min before intraperitoneal injection with cocaine (10 mg/kg). The locomotor activity was then measured for 10 min (n=6 for each group)."}, "wild-type mice [4]": {"system": "wild-type mice", "assay": "Cocaine CPP test in wild-type mice", "conditions": "donepezil hydrochloride 1 or 3 mg/kg i.p. (both doses) 20 min before drug, cocaine 10 mg/kg daily, 3 days, P<0.01, FIG. 5a"}, "wild-type mice [5]": {"system": "wild-type mice", "assay": "Morphine conditioned place preference (CPP) test in wild-type mice", "conditions": "donepezil hydrochloride 1 or 3 mg/kg i.p. (both doses) 20 min before morphine 5 mg/kg, 3-day conditioning, P<0.01, FIG. 4a"}, "wild-type mice [6]": {"system": "wild-type mice", "assay": "Development of cocaine-induced locomotor sensitization in wild-type mice", "conditions": "donepezil 1 mg/kg 10 min before daily cocaine 10 mg/kg i.p., 10 min measurement, ANOVA P<0.001, FIG. 5b"}, "IT-tg and IT-wt mice [7]": {"system": "IT-tg and IT-wt mice", "assay": "Morphine withdrawal symptom (jumping) induced by naloxone", "conditions": "naloxone 1 mg/kg 1 hr after morphine 50 mg/kg"}, "IT-tg and IT-wt mice [8]": {"system": "IT-tg and IT-wt mice", "assay": "Conditioned place aversion (CPA) test, naloxone-precipitated morphine withdrawal", "conditions": "naloxone 1 mg/kg after morphine 50 mg/kg"}, "IT-tg mice": {"system": "IT-tg mice", "assay": "Cocaine CPP test in IT-tg mice with ACh receptor agonist pretreatment", "format": "in vivo", "conditions": "methyl atropine 2 mg/kg pretreatment, pilocarpine 100 mg/kg 20 min before cocaine 5 mg/kg, 3 days, P<0.01 vs saline, FIG. 6", "protocol": "as §1"}, "IT-tg and IT-wt mice [9]": {"system": "IT-tg and IT-wt mice", "assay": "CPP test of sensitivity to addictive drugs in IT-tg and IT-wt mice"}}, "data": [{"smiles": "COc1ccc2c3c1O[C@H]1C[C@@H](O)C=C[C@@]31CCN(C)C2", "note": "[galanthamine]", "values": [{"measurement": "cocaine-induced hyperlocomotion on day 6", "setting": "wild-type mice [1]", "value": "significantly effective in inhibiting"}]}, {"smiles": "COc1cc2c(cc1OC)C(=O)C(CC1CCN(Cc3ccccc3)CC1)C2", "note": "(stereo not drawn) [donepezil]", "values": [{"measurement": "morphine-induced CPP in IT-tg mice", "setting": "IT-tg and IT-wt mice [2]; IT-tg mice, FIG. 4b", "value": "failed to suppress"}, {"measurement": "morphine-induced CPP in IT-wt mice", "setting": "IT-tg and IT-wt mice [2]; IT-wt mice, P<0.01, FIG. 4b", "value": "significantly reduced"}, {"measurement": "cocaine-induced hyperlocomotion on day 6", "setting": "wild-type mice [1]", "value": "significantly effective in inhibiting"}, {"measurement": "effects on cocaine-induced locomotion in IT-tg group", "setting": "IT-wt and IT-tg mice; IT-tg mice, FIG. 5d", "value": "not observed"}, {"measurement": "cocaine-induced abnormal behaviors (locomotor sensitization) in IT-wt group", "setting": "IT-wt and IT-tg mice; IT-wt mice, P<0.05, FIG. 5d", "value": "significantly decreased"}, {"measurement": "abnormal hyperlocomotion after cocaine re-administration on day 12 (relapse)", "setting": "wild-type mice [3]", "value": "no abnormal hyperlocomotion was observed"}, {"measurement": "degree of cocaine-induced CPP", "setting": "wild-type mice [4]", "value": "significantly reduced"}, {"measurement": "development of morphine-induced CPP", "setting": "wild-type mice [5]", "value": "significantly reduced"}, {"measurement": "increase in locomotor activity by repeated cocaine administration (locomotor sensitization)", "setting": "wild-type mice [6]", "value": "no such increase was observed"}]}, {"smiles": "C=CCN1CC[C@]23c4c5ccc(O)c4O[C@H]2C(=O)CC[C@@]3(O)[C@H]1C5", "note": "[naloxone]", "values": [{"measurement": "jumping (physical morphine withdrawal symptom)", "setting": "IT-tg and IT-wt mice [7]; IT-tg and IT-wt morphine-dependent mice, counted over 20 min", "value": "observed in both"}, {"measurement": "number of jumps, IT-tg vs IT-wt mice", "setting": "IT-tg and IT-wt mice [7]; morphine-dependent mice, 20 min, P<0.05, FIG. 3", "value": "significantly more number of jumps"}, {"measurement": "place aversion to naloxone-paired chamber", "setting": "IT-tg and IT-wt mice [8]; both IT-tg and IT-wt morphine-dependent mice, FIG. 2b", "value": "exhibited place aversion"}, {"measurement": "place aversion to naloxone-paired chamber, IT-tg vs IT-wt mice", "setting": "IT-tg and IT-wt mice [8]; morphine-dependent mice, P<0.05, FIG. 2b", "value": "stronger place aversion"}]}, {"smiles": "CC[C@@H]1C(=O)OC[C@@H]1Cc1cncn1C", "note": "[pilocarpine]", "values": [{"measurement": "development of cocaine-induced CPP in IT-tg mice", "setting": "IT-tg mice", "value": "significantly reduced"}]}, {"smiles": "CN1CC[C@]23c4c5ccc(O)c4O[C@H]2[C@@H](O)C=C[C@H]3[C@H]1C5", "note": "[morphine]", "values": [{"measurement": "place preference for morphine-paired chamber, IT-tg mice, 1 mg/kg", "setting": "IT-tg and IT-wt mice [9]; IT-tg mice, 3-day conditioning with 1 mg/kg morphine i.p., P<0.05, FIG. 2a", "value": "significant preference"}, {"measurement": "place preference for morphine-paired chamber, IT-wt mice, 1 mg/kg", "setting": "IT-tg and IT-wt mice [9]; IT-wt mice, 3-day conditioning with 1 mg/kg morphine i.p., FIG. 2a", "value": "no such preference was observed"}, {"measurement": "place preference for morphine-paired chamber, 5 mg/kg", "setting": "IT-tg and IT-wt mice [9]; both IT-tg and IT-wt mice, conditioning with 5 mg/kg morphine", "value": "exhibited place preference"}]}]}
